Assay results published in patent US12030879B2, “Sulfonyl acetamides as NLRP3 inhibitors” (Inflazome Limited, priority 2018, dated 2024).
Where a name gives a salt, the structure may show the parent alone.

Biological target: T1, NLRP3 (Homo sapiens, UniProt Q96P20)
T1 construct: Seed THP-1 cells (25,000 cells/well) containing 1.0 μg/ml LPS in 40 μl of RPMI medium; host or cells: THP-1 cells
Test: THP-1 cells pyroptosis assay
Format: cell-based
Conditions: LPS 1 μg/ml, compound 3 hrs, nigericin 5 μM 1 hr, resazurin readout
Procedure: THP-1 cells (ATCC #TIB-202) were grown in RPMI containing L-glutamine (Gibco #11835) supplemented with 1 mM sodium pyruvate (Sigma #S8636) and penicillin (100 units/ml)/streptomycin (0.1 mg/ml) (Sigma #P4333) in 10% Fetal Bovine Serum (FBS) (Sigma #F0804). The cells were routinely passaged and grown to confluency (10^6 cells/ml). On the day of the experiment, THP-1 cells were harvested and resuspended into RPMI medium (without FBS). The cells were then counted and viability (>90%) checked by Trypan blue (Sigma #T8154). Appropriate dilutions were made to give a concentration of 625,000 cells/ml. To this diluted cell solution was added LPS (Sigma #L4524) to give a 1 μg/ml Final Assay Concentration (FAC). 40 μl of the final preparation was aliquoted into each well of a 96-well plate. The plate thus prepared was used for compound screening.
The following method step-by-step assay was followed for compound screening. • 1. Seed THP-1 cells (25,000 cells/well) containing 1.0 μg/ml LPS in 40 μl of RPMI medium (without FBS) in 96-well, black walled, clear bottom cell culture plates coated with poly-D-lysine (VWR #734-0317) • 2. Add 5 μl compound (8 points half-log dilution, with 10 μM top dose) or vehicle (DMSO 0.1% FAC) to the appropriate wells • 3. Incubate for 3 hrs at 37° C., 5% CO2 • 4. Add 5 μl nigericin (Sigma #N7143) (FAC 5 μM) to all wells • 5. Incubate for 1 hr at 37° C., 5% CO2 • 6. At the end of the incubation period, spin plates at 300×g for 3 mins and remove supernatant • 7. Then add 50 μl of resazurin (Sigma #R7017)(FAC 100 μM resazurin in RPMI medium without FBS) and incubate plates for a further 1-2 hrs at 37° C. and 5% CO2 • 8. Plates were read in an Envision reader at Ex 560 nm and Em 590 nm • 9. IC50 data is fitted to a non-linear regression equation (log inhibitor vs response-variable slope 4-parameters) 96-well Plate Map

T1 sequence (Q96P20 whole entry): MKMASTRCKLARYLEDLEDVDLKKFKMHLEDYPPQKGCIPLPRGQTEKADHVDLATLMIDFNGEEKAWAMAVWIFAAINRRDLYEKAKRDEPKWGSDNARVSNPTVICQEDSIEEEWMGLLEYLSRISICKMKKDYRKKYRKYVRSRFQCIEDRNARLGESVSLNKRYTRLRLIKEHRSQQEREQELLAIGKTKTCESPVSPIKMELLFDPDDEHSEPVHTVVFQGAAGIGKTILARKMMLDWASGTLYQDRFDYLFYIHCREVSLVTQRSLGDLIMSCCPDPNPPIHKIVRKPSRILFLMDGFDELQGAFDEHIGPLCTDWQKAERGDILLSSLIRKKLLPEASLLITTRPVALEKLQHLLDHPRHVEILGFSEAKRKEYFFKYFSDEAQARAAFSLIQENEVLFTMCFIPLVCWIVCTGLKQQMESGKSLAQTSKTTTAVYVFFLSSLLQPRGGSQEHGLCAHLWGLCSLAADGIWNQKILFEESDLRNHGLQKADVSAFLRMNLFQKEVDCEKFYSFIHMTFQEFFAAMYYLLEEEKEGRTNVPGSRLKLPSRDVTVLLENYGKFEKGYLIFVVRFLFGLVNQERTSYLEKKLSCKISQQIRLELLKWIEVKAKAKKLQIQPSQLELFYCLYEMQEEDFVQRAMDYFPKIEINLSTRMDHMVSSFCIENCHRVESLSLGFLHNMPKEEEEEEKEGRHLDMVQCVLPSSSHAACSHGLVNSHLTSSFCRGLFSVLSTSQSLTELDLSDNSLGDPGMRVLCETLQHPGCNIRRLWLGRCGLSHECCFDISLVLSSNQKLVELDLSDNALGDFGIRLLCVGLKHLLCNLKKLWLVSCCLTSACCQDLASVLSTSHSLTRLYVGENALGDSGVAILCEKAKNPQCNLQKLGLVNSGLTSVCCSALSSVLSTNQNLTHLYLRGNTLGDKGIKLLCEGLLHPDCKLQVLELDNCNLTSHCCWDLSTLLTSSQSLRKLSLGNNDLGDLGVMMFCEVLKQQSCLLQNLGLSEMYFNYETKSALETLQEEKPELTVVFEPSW

IC50 [µM] | SMILES
≤ 0.5 | C=C(C)c1csc(S(=O)(=O)NC(=O)Cc2c(C(C)C)nn(C)c2-c2ccnc(OC)c2)c1 [Example 154]
≤ 0.5 | CC(C)c1cc(F)cc(-c2ccncc2)c1CC(=O)NS(=O)(=O)c1cc(C(C)(C)O)cs1 [Example 27, 2-(4-Fluoro-2-isopropyl-6-(pyridin-4-yl)phenyl)-N-((4-(2-hydroxypropan-2-yl)thiophen-2-yl)sulfonyl)acetamide, potassium salt]
≤ 1 | COc1cc(-c2cc(F)cc(C(C)C)c2CC(=O)NS(=O)(=O)c2cccc3ccoc23)ccn1 [Example 115]
≤ 10 | COc1cc(-c2cc(F)cc(C(C)C)c2CC(=O)NS(=O)(=O)c2sccc2C(C)(C)O)ccn1 [Example 8]
≤ 5 | COc1cc(-c2cc(F)cc(C(C)C)c2CC(=O)NS(=O)(=O)c2ccc(C(C)(C)N)c(F)c2)ccn1 [Example 83, N-((4-(2-Aminopropan-2-yl)-3-fluorophenyl)sulfonyl)-2-(4-fluoro-2-isopropyl-6-(2-methoxypyridin-4-yl)phenyl)acetamide]
≤ 0.5 | COc1cc(-c2cc(F)cc(C(C)C)c2CC(=O)NS(=O)(=O)c2cc(C(C)(C)O)c(F)cc2F)ccn1 [Example 149]
≤ 5 | COC(=O)c1ccc(S(=O)(=O)NC(=O)Cc2c(-c3ccnc(OC)c3)cc(F)cc2C(C)C)cc1Cl [Example 9]
≤ 5 | COc1cc(-c2cc(F)cc(C(C)C)c2CC(=O)NS(=O)(=O)c2cc(C(C)(C)O)ccc2C)ccn1 [Example 167]
≤ 5 | COc1cc(-c2cc(F)cc(C(C)C)c2CC(=O)NS(=O)(=O)c2c(C)nn(CC(F)(F)F)c2C)ccn1 [Example 168]
≤ 5 | COc1cc(-c2cc(F)cc(C(C)C)c2C(F)C(=O)NS(=O)(=O)c2cc(C(C)(C)O)cs2)ccn1 (stereo not drawn) [Example 104, 2-Fluoro-2-(4-fluoro-2-isopropyl-6-(2-methoxypyridin-4-yl)phenyl)-N-((4-(2-hydroxypropan-2-yl)thiophen-2-yl)sulfonyl)acetamide]
≤ 5 | COc1cc(-c2cc(F)cc(C(C)C)c2CC(=O)NS(=O)(=O)C[C@@]23CC[C@@H](C[C@H]2O)C3(C)C)ccn1 [Example 77, 2-(4-Fluoro-2-isopropyl-6-(2-methoxypyridin-4-yl)phenyl)-N-((((1R,2R,4S)-2-hydroxy-7,7-dimethylbicyclo[2.2.1]heptan-1-yl)methyl)sulfonyl)acetamide]
≤ 0.5 | COc1cc(-c2cc(F)cc(C(C)C)c2CC(=O)NS(=O)(=O)c2ccc(C(C)(C)NC(=O)OC(C)(C)C)c(F)c2)ccn1 [Example 90, tert-Butyl (2-(2-fluoro-4-(N-(2-(4-fluoro-2-isopropyl-6-(2-methoxypyridin-4-yl)phenyl)acetyl)sulfamoyl)phenyl)propan-2-yl)carbamate]
≤ 0.5 | Cc1cnccc1-c1cc(F)cc(C(C)C)c1CC(=O)NS(=O)(=O)c1cc(C(C)(C)O)cs1 [Example 100, 2-(4-Fluoro-2-isopropyl-6-(3-methylpyridin-4-yl)phenyl)-N-((4-(2-hydroxypropan-2-yl)thiophen-2-yl)sulfonyl)acetamide]
≤ 5 | COc1cc(-c2c(CC(=O)NS(=O)(=O)c3cc(C(C)(C)O)cs3)c(C(C)C)nn2C)ccn1 [Example 147]
≤ 5 | COc1cc(-c2cc(F)cc(C(C)C)c2CC(=O)NS(=O)(=O)c2ccc(CCN(C)C)cc2)ccn1 [Example 177]
≤ 10 | COC(=O)c1ccc(S(=O)(=O)NC(=O)Cc2c(-c3ccnc(OC)c3)cc(F)cc2C(C)C)c(C)c1 [Example 39, Methyl 4-(N-(2-(4-fluoro-2-isopropyl-6-(2-methoxypyridin-4-yl)phenyl)acetyl)sulfamoyl)-3-methylbenzoate]
≤ 5 | COc1cc(-c2ccc3c(c2CC(=O)NS(=O)(=O)c2cc(C(C)C)c(F)cc2F)CCC3)ccn1 [Example 204]
≤ 5 | COc1cc(-c2cc(F)cc(C(C)C)c2CC(=O)NS(=O)(=O)c2ccc(Br)cc2C(F)(F)F)ccn1 [Example 140]
